# Reference: US20180188270A1, “DIAGNOSTIC TEST FOR ALZHEIMER'S DISEASE BASED ON IDENTIFICATION OF A PROTEOLYTIC PATHWAY” (Health Research, Inc., priority 2015, published 2018)
# Several values for one entry are separate records, joined by “and”; a condition that tells them apart may be missing. Equal entries are not always repeated. Entries after “also recorded” stand apart in the source; their conditions may differ.
# Assays:
# Format in all cases: in vivo, mouse
# plasma hAβ1-40 = assay: Plasma hAβ1-40 level in mice by ELISA; settings: EP 0.5 mg/kg i.p. daily 5 days, hAβ1-40 40 μg/kg 1 h after fifth dose, 6 h
# Experimental: Male C57BL/6 mice (7-8 weeks of age) were purchased from Taconic and were treated with vehicle (PBS) and EP (0.5 mg/kg) i.p. once daily for 5 days. […] Blood was collected into K3 EDTA-containing tubes (Multivette 600 from Sarstedt). […] The plates were washed three times with phosphate buffered saline with tween-20 (PBST) and the coated wells were blocked by incubation with 200 μl/well of 1% BSA in PBS for at least 2 h at room temperature (RT). […] The plates were washed again with PBST, and each well was incubated with a goat anti-rabbit IgG-HRP conjugate (100 μl) for 1 h at RT.
# [1] = test system: total plasma Aβ1-40 and Aβ1-42; assay: Total plasma level of Aβ1-40 and Aβ1-42 in J20 AD mice and WT mice by ELISA; settings: for increase in total plasma levels of Aβ1-40 and Aβ1-42: EP 0.5 mg/kg i.p. daily 5 days
# From the text: (§1) B6.Cg-Tg(PDGFB-APPSwlnd) 20 Lms/2 JMjax mice, also known as J20 mice, were purchased from Jackson Laboratory. J20 mice express a mutant form of the human Aβ precursor protein (APP) bearing both the Swedish (K670N/M671L) and the Indiana (V717F) mutations (APPSwlnd) (Mucke et al., J Neurosci, 2000, 20, 4050-4058). Neural expression of the transgenic insert is directed by the human platelet-derived growth factor beta polypeptide (PDGFB) promoter. J20 mice in C57BL/6 background (male hemizygotes) were bred to wild type (WT) female C57BL/6J mice (also purchased from Jackson Laboratory). F1 mice were genotyped by PCR at weaning to identify the hemizygotes and the non-transgenic littermates. Mice at age of 1 month and 3 months were treated once daily with vehicle or EP (0.5 mg/kg) i.p for 5 days. EP was given in PBS (0.1 ml per 20 g body weight). Blood was collected from the mice at 6 h after the last PBS/EP dose by cardiac puncture at the time of sacrifice by carbon dioxide. Blood was collected into K3 EDTA-containing tubes (Multivette 600 from Sarstedt).
# Total plasma levels of Aβ1-40 and Aβ1-42 were measured by ELISA. Briefly, 96-well ELISA plates were coated with an anti-Aβ1-42 monoclonal antibody (sc-374527) at 0.25 μg/100 μl/well at 4° C. overnight. The plates were washed three times with phosphate buffered saline tween-20 (PBST) and the coated wells were blocked by incubation with 200 μl/well of 1% BSA in PBS for at least 2 h at RT. […] The plates were then washed with PBST and incubated with an anti-Aβ1-42 rabbit polyclonal antibody (sc-9129) at 100 μl/well for 2 h at RT. The plates were washed again with PBST, and each well was incubated with a goat anti-rabbit IgG-HRP conjugate (100 μl) for 1 h at RT. After yet another round of wash with PBST, each well was incubated with 100 μl of HRP substrate 3,3′,5,5′-tetramethylbenzedine (Cell Signaling, 7004). Upon adequate color development, 100 μl of stop solution (Cell Signaling, 7002) was added to each well, and absorbance at 450 nm was promptly recorded by a microtiter plate reader.
# plasma PEPD = assay: Plasma PEPD concentration in mice by ELISA; settings: for average plasma level of total PEPD, higher than with hPEPD alone: hPEPD 0.2 mg/kg 1 h after last EP dose
# Experimental: Animal studies. All animal studies were performed in accordance with protocols approved by the Institutional Animal Care and Use Committee at Roswell Park Cancer Institute. Male mice at 7-8 weeks of age were used, including wild type (WT) mice (C57BL/6), and mice deficient in FXII (C57BL/6-FXII^−/−) or FVII (C57BL/6-FVII^tTA/tTA). WT C57BL/6 mice were purchased from Taconic. C57BL/6-FXII^−/− mice and C57BL/6-FVII^tTA/tTA mice were bred in our own facility and genotyped. The breeders were kindly provided by Dr. Francis J. Castellino at University of Notre Dame. […] CCl4 was dissolved in corn oil, whereas all other substances were dissolved in PBS. The vehicle or the test substance was given to mice in 0.1 ml volume per 20 g body weight. Blood was collected from the mice at specific times by cardiac puncture at the time of sacrifice by carbon dioxide, and heart, liver and kidney were also collected from some of the mice. Blood was collected into K3 EDTA-containing tubes (Multivette 600 from Sarstedt), unless specified otherwise. All blood samples were promptly centrifuged to obtain plasma samples.
# Measurement of plasma levels of PEPD, SRC, Aβ1-42 and FI. […] The plates were washed three times with phosphate buffered saline tween-20 (PBST) and the coated wells were blocked by incubation with 200 μl/well of 1% BSA in PBS for at least 2 h at RT. After another round of wash with PBST, the plates were incubated with appropriately diluted Aβ1-42 standard, SRC standard or plasma samples (100 μl/well) for 2 h at RT. The plates were then washed with PBST and incubated with an anti-Aβ1-42 rabbit polyclonal antibody (sc-9129) or anti-SRC rabbit monoclonal antibody (2123) at 100 μl/well for 2 h at RT. The plates were washed again with PBST, and each well was incubated with a goat anti-rabbit IgG-HRP conjugate (100 μl) for 1 h at RT. After yet another round of wash with PBST, each well was incubated with 100 μl of HRP substrate 3,3′,5,5′-tetramethylbenzedine (Cell Signaling, 7004). Upon adequate color development, 100 μl of stop solution (Cell Signaling, 7002) was added to each well, and absorbance at 450 nm was promptly recorded by a microtiter plate reader. Plasma FI concentration was determined using an assay kit (400-374-130050) from GenWay Biotech, following the manufacturer's instruction.
# [2] = test system: coagulation factors FX, FII and FVII; assay: Coagulation proteases in J20 AD mice by western blotting; settings: AD mice at 1 month and 3 months of age, EP 0.5 mg/kg i.p. daily 5 days
# From the text: as §1
# plasma Aβ1-42 = assay: Plasma Aβ1-42 concentration in mice by ELISA; settings: WT mice, EP 2.5 mg/kg i.p. daily 5 days
# Experimental: Animal studies. All animal studies were performed in accordance with protocols approved by the Institutional Animal Care and Use Committee at Roswell Park Cancer Institute. Male mice at 7-8 weeks of age were used, including wild type (WT) mice (C57BL/6), and mice deficient in FXII (C57BL/6-FXII^−/−) or FVII (C57BL/6-FVII^tTA/tTA). WT C57BL/6 mice were purchased from Taconic. C57BL/6-FXII^−/− mice and C57BL/6-FVII^tTA/tTA mice were bred in our own facility and genotyped. […] CCl4 was dissolved in corn oil, whereas all other substances were dissolved in PBS. The vehicle or the test substance was given to mice in 0.1 ml volume per 20 g body weight. Blood was collected from the mice at specific times by cardiac puncture at the time of sacrifice by carbon dioxide, and heart, liver and kidney were also collected from some of the mice. Blood was collected into K3 EDTA-containing tubes (Multivette 600 from Sarstedt), unless specified otherwise. All blood samples were promptly centrifuged to obtain plasma samples.
# [3] = test system: plasma coagulation factors FXII, PK, HMWK, FXI, FIX, FX, FII, FI and FVII; assay: Changes in plasma coagulation factors in mice by IB (FI by ELISA)
# Experimental: Animal studies. […] Male mice at 7-8 weeks of age were used, including wild type (WT) mice (C57BL/6), and mice deficient in FXII (C57BL/6-FXII^−/−) or FVII (C57BL/6-FVII^tTA/tTA). WT C57BL/6 mice were purchased from Taconic. C57BL/6-FXII^−/− mice and C57BL/6-FVII^tTA/tTA mice were bred in our own facility and genotyped. […] CCl4 was dissolved in corn oil, whereas all other substances were dissolved in PBS. The vehicle or the test substance was given to mice in 0.1 ml volume per 20 g body weight. Blood was collected from the mice at specific times by cardiac puncture at the time of sacrifice by carbon dioxide, and heart, liver and kidney were also collected from some of the mice. Blood was collected into K3 EDTA-containing tubes (Multivette 600 from Sarstedt), unless specified otherwise. All blood samples were promptly centrifuged to obtain plasma samples.
# The plates were washed three times with phosphate buffered saline tween-20 (PBST) and the coated wells were blocked by incubation with 200 μl/well of 1% BSA in PBS for at least 2 h at RT. […] The plates were washed again with PBST, and each well was incubated with a goat anti-rabbit IgG-HRP conjugate (100 μl) for 1 h at RT. After yet another round of wash with PBST, each well was incubated with 100 μl of HRP substrate 3,3′,5,5′-tetramethylbenzedine (Cell Signaling, 7004). Upon adequate color development, 100 μl of stop solution (Cell Signaling, 7002) was added to each well, and absorbance at 450 nm was promptly recorded by a microtiter plate reader. Plasma FI concentration was determined using an assay kit (400-374-130050) from GenWay Biotech, following the manufacturer's instruction.
# IB. Tissue samples were mixed with RIPA buffer (25 mM Tris-HCl, pH 7.6, 150 mM NaCl, 1% Nonidet P-40, 1% sodium deoxycholate, 0.1% SDS), supplemented with 2 mM phenylmethanesulfonyl fluoride, a proteinase inhibitor mix (Roche Applied Science) and phosphatase inhibitor Cocktail 2 (Sigma-Aldrich). Tissue samples were stroked in a Dounce homogenizer, and the homogenates were cleared by centrifugation at 12,000×g for 15 min at 4° C. Protein concentrations in all samples were measured by the BCA assay kit. Plasma samples were used without further processing (20 μl per sample). Each sample was mixed with 4× loading dye, heated for 5 min at 95° C. and then resolved by SDS-PAGE (8-12.5%). […] The proteins were transferred to polyvinylidene fluoride membrane, probed with specific antibodies and detected using the ECL Plus Kit (Amersham) or the SuperSignal West Pico Kit (Thermo Scientific).
# [4] = WT mice, EP 2.5 mg/kg i.p. daily 5 days
# [5] = WT mice, EP 2.5 mg/kg daily 5 days, hPEPD 0.2 mg/kg
substance,measurement,setting,value
enoxaparin [EP],elevation of average plasma hAβ1-40 concentration by EP pretreatment,plasma hAβ1-40,77.4 fold
same,ratio of EP-induced increase in total plasma levels of Aβ1-40 and Aβ1-42 in AD mice to WT mice,[1]; 1 month of age,8.71-9.32
same,ratio of EP-induced increase in total plasma levels of Aβ1-40 and Aβ1-42 in AD mice to WT mice,[1]; 3 month of age,47.53-56.85
same,increase in total plasma levels of Aβ1-40 and Aβ1-42,"[1]; AD mice, 1 month of age",about 2.3 fold
same,increase in total plasma levels of Aβ1-40 and Aβ1-42,"[1]; AD mice, 3 month of age",3.6-4.2 fold
same,increase in total plasma levels of Aβ1-40 and Aβ1-42,[1]; WT mice at both 1 month and 3 months of age,about 1.6 fold
same,"average plasma level of total PEPD in WT mice, lower than in FXII−/− mice","plasma PEPD; EP pretreatment, 6 h after hPEPD 0.2 mg/kg i.p.",14.6%
same,effect of EP on plasma PEPD level,"plasma PEPD; FXII−/− mice, EP 2.5 mg/kg i.p. daily 5 days",did not show a significant effect
same,"plasma level of mPEPD, increase by EP",plasma PEPD; [4],2.0 fold and 2.1 fold
same,"average plasma level of total PEPD, higher than with hPEPD alone","plasma PEPD; WT mice, EP 2.5 mg/kg i.p. daily 5 days, 1 h after hPEPD",35.2 fold
same,"average plasma level of total PEPD, higher than with hPEPD alone","plasma PEPD; WT mice, EP 2.5 mg/kg i.p. daily 5 days, 24 h after hPEPD",63.8 fold
same,average plasma level of total PEPD,"plasma PEPD; WT mice, EP pretreatment, 6 h after hPEPD 0.2 mg/kg i.p.",19.7 nM
same,reduction of hPEPD dose allowed by EP without decreasing its plasma concentration,"plasma PEPD; mice, plasma concentration required for inhibition of ERBB2-driven tumors",at least 50 fold
same,"EP effect on activation of FX, FII and FVII",[2],"inhibits the activation of FX, FII and FVII"
same,"average plasma level of endogenous mAβ1-42, higher in EP-treated mice than in control mice",plasma Aβ1-42,1.7 fold
same,"plasma level of total Aβ1-42, increase after EP plus hAβ1-42","plasma Aβ1-42; hAβ1-42 40 μg/kg 1 h after last dose, 6 h",406.0 fold
same,"EP inhibition of hPEPD-induced slight activation of FX, FII and FVII",[3]; FXII−/− mice,largely inhibited by EP
same,"EP inhibition of activation of FX, FII and FVII","[3]; WT mice treated with hAβ1-42 40 μg/kg, EP 2.5 mg/kg daily 5 days","greatly inhibited the activation of FX, FII and FVII"
same,"EP prevention of hPEPD-induced activation of FXII, PK, HMWK, FXI and FIX",[3]; [5],"failed to prevent hPEPD from activating FXII, PK, HMWK, FXI and FIX"
same,"EP prevention of hPEPD-induced activation or cleavage of FX, FII, FI and FVII",[3]; [5],"prevented hPEPD from causing activation or cleavage of FX, FII, FI and FVII"
same,effect of EP itself on plasma coagulation factors,[3]; [4],had no effect on any of the FXII-FVII pathway factors measured; also recorded: had no effect on these factors
